Experiments:
petunia leaf disks = assay: Callus growth from petunia leaf disks on MS media with glyphosate; format: cell-based
Method: Leaf disks with diameters of 6 mm (1/4 inch) were taken from surface-sterilized petunia leaves. They were cultivated on MS104 agar medium for 2 days to promote partial cell wall formation at the wound surfaces. They were then submerged in a culture of A. tumefaciens cells containing both pMON546 and GV3111-SE which had been grown overnight in Luria broth at 28° C., and shaken gently. The cells were removed from the bacterial suspension, blotted dry, and incubated upside down on filter paper placed over "nurse" cultures of tobacco cells, as described in Horsch 1981. Afer 2 or 3 days, the disks were transferred to petri dishes containing MS media with 500 μg/ml carbenicillin and 0, 0.1, 0.25, or 0.5 mM glyphosate (sodium salt), with no nurse cultures.
Control tissue was created using A. tumefaciens cells containing the helper plasmid pGV3111-SE and a different plant transformation vector, pMON505, which contained a T-DNA region with a NOS/NPTII/NOS kanamycin resistance gene and a NOS selectable marker gene identical to pMON546, but without the CaMV/EPSPS gene.
Within 10 days after transfer to the media containing glyphosate, actively growing callus tissue appeared on the periphery of all disks on the control plate containing no glyphosate. […] This confirms that the CaMV/EPSPS gene conferred glyphosate resistance upon the transformed cells.

soybean callus = assay: Soybean callus growth on MS medium with glyphosate; format: cell-based, Glycine canescens
Method: Sterile hypocotyl pieces of Glycine canescens, a type of soybean, were infected with the A. tumefaciens strain containing the chimeric EPSPS gene as described in Example 2. Nurse culture plates were made which contained a medium of 10% of the normal level of MS salts (GIBCO), B5 vitamins, 3 g/l sucrose, 2 mg/l napthalene acetic acid, 1 mg/l benzyladenine, and 0.5 mM arginine. The pH was adjusted to 5.7 before autoclaving.
The infected soybean hypocotyls were incubated at 26° C. for two days and transferred to a similar medium (except that the MS salts were not diluted) and additionally containing 500 mg/l carbenicillin, 100 mg/l cefotaxime and 100 mg/l kanamycin. Under these conditions, only transformed soybean callus was able to grow.
Control tissue was produced using A. tumefaciens cells containing the helper Ti plasmid pTiT37-SE and a plant transformation vector pMON200. See Fraley et al, Biotechnology Vol. 3, 1985, described herein. The co-integrate pTiT37-SE contained a T-DNA region with a NOS/NPTII/NOS kanamycin resistance gene and a NOS scorable marker gene identical to pMON200, but without the CaMV 35S/EPSPS/NOS gene.
After 14-17 days, soybean callus transformed with either the vector alone (pMON200 plasmid) or with the vector containing a chimeric EPSPS gene was transferred to petri dishes containing MS medium and 0, 0.5 mM or 1.0 mM glyphosate.
Within 18-20 days after transfer to the media containing glyphosate, actively growing callus tissue appeared in all dishes containing no glyphosate.

[1] = tested on: leaf tissue from transgenic shoots of B. napus; assay: Oil seed rape leaf tissue tolerance test on medium with glyphosate; format: cell-based, Brassica napus; conditions: 0.5 mM glyphosate
Method: The four terminal intervals from B. napus plants (growth chamber grown in soil) are surface sterilized in sodium hypochlorite and cut into 5 mm sections. The upper surface of each piece is inoculated with an overnight liquid culture of A. tumefaciens containing the above described transformation vector and helper plasmid pTiT37-SE and incubated for 2 to 3 days on nurse culture plates containing 1/10 MS medium with 1 mg/l BA. The explants are then transferred to MS medium containing 1 mg/l BA, 500 mg/l carbenicillin and 100 mg/l kanamycin. After 3 to 6 weeks, leaf tissue from transgenic shoots that have developed is transferred to the same medium but with 0.5 mM glyphosate instead of the kanamycin to test for tolerance.
Control tissue is prepared using A. tumefaciens cells containing helper plasmid pTiT37-SE and vector pMON200.

E. coli 11303 SM-1 = assay: Growth of E. coli culture in glyphosate-containing growth medium; format: cell-based; conditions: mutant E. coli 11303 SM-1, glyphosate 10 mM or higher in growth medium
Method: Cells of E. coli ATCC 11303 were transferred to medium A and incubated at 37° C.
This mutant bacterium was designated E. coli 11303 SM-1. The aroA gene encoding EPSPS from this mutant bacterium was isolated as follows.

[2] = tested on: sunflower tumors and callus; assay: Sunflower tumor and callus tolerance to glyphosate; format: cell-based
From the text: The following procedures are utilized to obtain transformed sunflower tissue and shoots. Tumors are incited on sterile sunflower seedlings. Sunflower seeds are surface sterilized with 40% Chlorox and sterile distilled water rinses. The seeds are germinated on an agar medium containing B5 salts, 0.5% sucrose and 0.8% agar. Seven-day old seedlings are inoculated with overnight cultures of Agrobacterium strains carrying pTiB6S3-SE by scoring the internode or stabbing the internode with a syringe and using another syringe to introduce the bacteria into the wound. Tumors form in 2-3 weeks. The tumors are removed from the seedlings and grown independently on MS medium without hormones. Transformed callus and shoots are also obtained following a different procedure. Seeds are surface sterilized and placed on the germination medium above. Germination is carried out in the light for 10 days. Hypocotyl segments, 2-3 mm are, excised and inoculated with Agrobacterium strains containing engineered constructs. The hypocotyls are co-cultured for 2 days on a medium containing MS salts and vitamins, 5 g/l KN03, 100 mg/l inositol, 40 mg/l adenine sulfate, 500 mg/l casamino acids, 1 mg/l NAA, 1 mg/l BA, 0.1 mg/l GA3, […] and 8 gm/l agar. After co-culture, the hypocotyls are placed on the same medium but containing 300 mg/l kanamycin and 500 mg/l carbenicillin.
A. tumefaciens containing binary vectors pMON546 and helper plasmid pTiB6S3-SE are used to produce tumors and callus and regenerated plants.

sunflower plants = assay: Sunflower plants sprayed with glyphosate; format: in vivo

O=C(O)CNCP(=O)(O)O [glyphosate, N-phosphonomethylglycine]
callus growth, control disks versus transformed tissue (petunia leaf disks; 0.1 mM glyphosate (sodium salt), within 10 days, control pMON505, transformed pMON546): little detectable difference between the control disks and the transformed tissue | callus growth (petunia leaf disks; control disks (pMON505), 0.25 mM glyphosate (sodium salt)): very little growth of callus from control disks | callus growth (petunia leaf disks; control disks (pMON505), 0.5 mM glyphosate (sodium salt)): no callus growth from the control disks | callus growth (petunia leaf disks; transformed disks (pMON546, CaMV/EPSPS), 0.5 mM glyphosate (sodium salt)): a significant number of calli grew from the transformed disks | callus growth (petunia leaf disks; transformed tissue (pMON546, CaMV/EPSPS), 0.25 mM glyphosate (sodium salt)): substantial growth of transformed tissue occurred | callus growth (soybean callus; callus colonies containing the chimeric EPSPS gene, 0.5 mM glyphosate, 18-20 days): showed definite growth | callus growth (soybean callus; control callus (pMON200 vector alone), 0.5 mM glyphosate, 18-20 days): little growth in the dishes containing control callus | callus growth (soybean callus; control tissues (pMON200), 1.0 mM glyphosate): no callus growth from the control tissues | callus growth (soybean callus; transformed callus containing the chimeric EPSPS gene, 1.0 mM glyphosate): some growth of the transformed callus | tissue growth ([1]; transformed (pMON200) and non-transformed controls): are inhibited | tissue growth ([1]; transgenic tissue that expresses EPSPS): are able to grow in the presence of glyphosate | growth of culture (E. coli 11303 SM-1): could grow rapidly | callus response ([2]; callus without the glyphosate resistance gene): kill callus without the glyphosate resistance gene | tumor response ([2]; control tumors which do not contain the glyphosate resistance gene): bleach and kill control tumors | callus tolerance ([2]; non-tumorous callus transformed with pMON546): show tolerance to levels of glyphosate | tumor tolerance ([2]; tumors produced with pMON546): exhibit tolerance to glyphosate | plant tolerance to spray (sunflower plants; transformed sunflower plants): demonstrate tolerance to glyphosate | plant response to spray (sunflower plants; wild type sunflower plants): kill wild type plants

Reference: patent US5188642A, “Glyphosate-resistant plants” (priority 1990, dated 1993)
